From PubChem BioAssay (NCI)
“And” between values parts separate entries of the source, which are not always exact repeats. Equal entries are not always repeated.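 48-hour exposure; five concentrations; linearly interpolated endpoints. Here, GI50 denotes the concentration required for 50% inhibition of growth. At the TGI there is no net growth.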

Assays:
Assay in all cases: NCI anticancer screen, dose series, 48 h
EKVX NSCLC = tested on: EKVX NSCLC
HCT-15 colon = tested on: HCT-15 colon
HOP-62 NSCLC = tested on: HOP-62 NSCLC
K-562 leukemia = tested on: K-562 leukemia
MOLT-4 leukemia = tested on: MOLT-4 leukemia
SF-539 CNS = tested on: SF-539 CNS
SK-MEL-28 melanoma = tested on: SK-MEL-28 melanoma
UACC-62 melanoma = tested on: UACC-62 melanoma
UACC-257 melanoma = tested on: UACC-257 melanoma
CCRF-CEM leukemia = tested on: CCRF-CEM leukemia

| SMILES | GI50 (EKVX NSCLC) | TGI (EKVX NSCLC) | GI50 (HCT-15 colon) | TGI (HCT-15 colon) | GI50 (HOP-62 NSCLC) [µM] | TGI (HOP-62 NSCLC) | GI50 (K-562 leukemia) | TGI (K-562 leukemia) | GI50 (MOLT-4 leukemia) [µM] | TGI (MOLT-4 leukemia) | GI50 (SF-539 CNS) [µM] | TGI (SF-539 CNS) | GI50 (SK-MEL-28 melanoma) | TGI (SK-MEL-28 melanoma) | GI50 (UACC-62 melanoma) [µM] | TGI (UACC-62 melanoma) [µM] | TGI (UACC-257 melanoma) [µM] | TGI (CCRF-CEM leukemia) | GI50 (UACC-257 melanoma) | GI50 (CCRF-CEM leukemia) |
| --- | --- | --- | --- | --- | --- | --- | --- | --- | --- | --- | --- | --- | --- | --- | --- | --- | --- | --- | --- | --- |
| Cc1cn(Cc2ccc(C34CC5CC(CC(C5)C3)C4)c(O)c2)c(=O)[nH]c1=O | 8.21 µM | 29.1 µM | 7.99 µM | 20.5 µM | 12.9 | 25.6 µM | 2.99 µM | 11 µM | 7.5 | 27.5 µM | 9.45 | 23 µM | 6.78 µM | 23.7 µM | 7.34 | 20.4 | – | – | – | – |
| O=C1C=CC(=O)c2c(O)c3c(c(O)c21)C[C@H](O)[C@H](O)[C@@H]3O | – | 6.15 µM | – | 7.19 µM | – | 13.2 µM | – | > 21.2 µM | – | > 23.6 µM | – | 9.16 µM | – | 5.38 µM | – | 10.1 | 2.64 | – | – | – |
| CCOP(=O)(OCC)C(C(=O)OC)C(=O)C(=O)Nc1cccc(O)c1 (stereo not given) | – | > 100 µM | – | > 100 µM | – | > 100 µM | – | – | – | > 100 µM | – | > 100 µM | – | > 100 µM | – | > 100 | > 100 | > 100 µM | – | – |
| Cc1cc(C)c(-c2c(N)cc(Br)cc2Br)c(N)c1 | 5.15 µM | 26.3 µM | 4.7 µM | 17.3 µM | – | – | – | – | – | – | 2.94 | 9.87 µM | 6.25 µM | 21 µM | 4.3 | 17.2 | 22.1 | – | 5.84 µM | – |
| CC(=O)[CH-]C(=O)c1ccccc1.CC(=O)[CH-]C(=O)c1ccccc1.O=S(=O)([O-])c1cc([O-])c2c([O-])cc(S(=O)(=O)[O-])cc2c1.[Na+].[Zr+4] | > 100 µM | > 100 µM | > 100 µM | > 100 µM | 76 | > 100 µM | > 100 µM | > 100 µM | 40.8 | > 100 µM | > 100 | > 100 µM | > 100 µM | > 100 µM | > 100 | > 100 | > 100 | – | 87.2 µM | – |
| CO[C@H]1CC(O[C@@H]2/C(C)=C/C[C@@H]3C[C@@H](C[C@]4(CC[C@H](C)[C@@H](C5CCCCC5)O4)O3)OC(=O)[C@@H]3C=C(C)/C(=N/O)[C@H]4OC/C(=C\C=C\[C@@H]2C)[C@]43O)O[C@@H](C)C1O (stereo not given in full) | 0.951 µM | 2.64 µM | 0.873 µM | 1.95 µM | 0.887 | 1.73 µM | 1.17 µM | 2.67 µM | 1.12 | 2.53 µM | 0.948 | 1.93 µM | 0.952 µM | 1.97 µM | 0.786 | 1.54 | 2.55 | – | 0.987 µM | – |
| O=C(O)C1[O][Sb][O]C(C(=O)O)C1O (stereo not given) | > 100 µM | > 100 µM | > 100 µM | > 100 µM | > 100 | > 100 µM | > 100 µM | > 100 µM | > 100 | > 100 µM | – | – | > 100 µM | > 100 µM | > 100 | > 100 | – | > 100 µM | – | > 100 µM |
| Cc1cccc(C)c1N1C(=O)C(=O)C(c2nc3ccccc3s2)/C(=N\N)C1=O (stereo not given) | – | > 100 µM | – | > 100 µM | – | > 100 µM | – | > 100 µM | – | > 100 µM | – | > 100 µM | – | > 100 µM | – | > 100 | > 100 | – | – | – |
| COc1ccc(OC)c(/C=N/N=C(\N)NO)c1 | – | > 100 µM | – | > 100 µM | – | > 100 µM | – | > 100 µM | – | – | – | > 100 µM | – | > 100 µM | – | 26.9 | > 100 | > 100 µM | – | – |
| COC(=O)[C@@H]1Cc2c([nH]c3ccccc23)[C@H](c2ccccc2)N1 | – | > 100 µM | – | 41.3 µM | – | – | – | > 100 µM | – | > 100 µM | – | 67.3 µM | – | > 100 µM | – | > 100 | > 100 | > 100 µM | – | – |
| COC(=O)c1cc2c3ccccc3n3c2c(n1)-c1[nH]c2ccccc2c(=O)c1C3 | 79 µM | > 100 µM | > 100 µM | > 100 µM | – | – | > 100 µM | > 100 µM | 5.9 | > 100 µM | 20.3 | 77.6 µM | > 100 µM | > 100 µM | 43.3 | > 100 | > 100 | > 100 µM | > 100 µM | 2.19 µM |
| COC1(OC)C2(Cl)C(Cl)=C(Cl)C1(Cl)C1C2C2CC1(C(=O)O)c1ccccc12 (stereo not given) | – | – | – | 62.3 µM | – | 62.8 µM | – | 43.2 µM | – | 43.3 µM | – | – | – | 38.9 µM | – | 34.8 | 47.4 | 27 µM | – | – |
| CCNC(=O)OCc1c(COC(=O)NCC)c(-c2ccc(Cl)c(Cl)c2)n2c1CCC2 | – | – | – | 36.9 µM | – | 23.8 µM | – | 37.8 µM | – | 56.3 µM | – | 25.6 µM | – | 36.9 µM | – | 23.1 | 83.8 | 21.4 µM | – | – |
| COc1ccc(S(=O)(=O)N(CC(=O)O)c2ccccc2)cc1 | – | > 100 µM | – | > 100 µM | – | – | – | > 100 µM | – | > 100 µM | – | > 100 µM | – | > 100 µM | – | > 100 | > 100 | > 100 µM | – | – |
| CCCCCCCCCC[C@H](O)[C@H](O)CC[C@@H](O)[C@H]1CC[C@@H]([C@H]2CC[C@H](CCCCCCC[C@@H](O)CC3=C[C@H](C)OC3=O)O2)O1 | 18.5 µM | – | 23.8 µM | > 100 µM | 11.6 | 69.8 µM | – | – | 23.9 | 94.7 µM | 15.5 | 40.9 µM | 47 µM | > 100 µM | – | 5.95 | > 100 | – | 9.51 µM | – |
| Nc1c(Cl)ncnc1NCCCCCCCCCCCCNc1ncnc(Cl)c1N | – | 98.1 µM | – | > 100 µM | – | 6.82 µM | – | > 100 µM | – | – | – | 30.3 µM | – | 5.22 µM | – | 13.6 | 4.21 | – | – | – |
| CC(C)CCCCCCCCCCCCC(=O)NCC(=O)NC1C(O)C(O)C(Nc2ncnc3nc[nH]c23)OC1C(O)CO (stereo not given) | – | 0.0228 µM and 0.0578 µM and 0.0199 µM | 0.00599 µM and 0.0249 µM | 0.896 µM and 1.1 µM | < 1e-05 | – | 0.00331 µM and 0.0128 µM | 0.412 µM and 3.94 µM | – | 0.153 µM and 0.43 µM | – | – | 0.00334 µM and 0.0102 µM | 0.37 µM and 0.797 µM | < 1e-05 | – | – | 0.59 µM and 3.36 µM | – | 0.0318 µM and 0.023 µM |
| O=C1/C(=C/c2ccc(Cl)cc2)CNC/C1=C\c1ccc(Cl)cc1 | 5.74 µM and 2.29 µM | 21.2 µM and 6.75 µM | – | 2.6 µM | – | 12.5 µM and 7.03 µM | 0.551 µM and 1.37 µM | 17.3 µM and > 100 µM | – | – | – | 3.2 µM and 4.11 µM | 1.3 µM | 3.74 µM and 2.96 µM | – | > 19.9 | – | 10.3 µM and > 100 µM | 1.78 µM and 7.7 µM | 0.596 µM and 1.32 µM |
| C=CCC(N[C@H](CO)c1ccccc1)c1cn(Cc2ccccc2Cl)c(=O)n(Cc2ccccc2Cl)c1=O (stereo not given in full) | 16.1 µM | 96.4 µM | 9.27 µM | 35.2 µM | 12 | 29.9 µM | 6.78 µM | 40.7 µM | – | – | 15 | 32.5 µM | 19.7 µM | 39.5 µM | 7.64 | 27.1 | 53.4 | 42.5 µM | 23.3 µM | 10.6 µM |
| COC(=O)C1=CC2C=CC(C1C(=O)OC)C1C(C(=O)OC)=C(C(=O)OC)C(C(=O)OC)=C(C(=O)OC)C21OC (stereo not given) | – | > 100 µM | – | > 100 µM | – | > 100 µM | – | – | – | > 100 µM | – | > 100 µM | – | > 100 µM | – | > 100 | > 100 | – | – | – |
| CCN(CC)CCCC(C)N/C(=C1\C(=O)NC(=O)\C1=C(/NC(C)CCCN(CC)CC)c1cccc(OC)c1)c1cccc(OC)c1 (stereo not given) | – | – | 0.764 µM | 4.07 µM | 0.815 | 2.27 µM | 0.581 µM | 3.86 µM | 0.312 | 2.09 µM | 0.791 | 1.51 µM | 0.913 µM | 1.67 µM | 0.859 | 1.62 | 1.58 | 2.89 µM | 0.842 µM | 0.816 µM |
| CC1NC(=O)C2=C1C(=O)NC(=O)C2 (stereo not given) | > 100 µM | > 100 µM | > 100 µM | > 100 µM | > 100 | > 100 µM | > 100 µM | > 100 µM | – | – | > 100 | > 100 µM | – | – | > 100 | > 100 | > 100 | > 100 µM | > 100 µM | > 100 µM |
| Cc1nc2c(o1)C(=Nc1ccccc1)c1nc(C)oc1C2=Nc1ccccc1 | – | – | – | > 100 µM | – | 36.3 µM | – | > 100 µM | – | 72.6 µM | – | 27.3 µM | – | 44.9 µM | – | 39.4 | 97.6 | > 100 µM | – | – |
| COc1cccc(Nc2nc3ccccc3c3occc23)c1 | 14.3 µM | 36.9 µM | 13.2 µM | > 100 µM | 15 | 39 µM | 6.27 µM | > 100 µM | – | – | 17.3 | 35.1 µM | 14.5 µM | 29.9 µM | 9.37 | 24.6 | 26.8 | – | 13.2 µM | – |
| N/N=C(/Cc1nc2ccc(C(=O)c3ccccc3)cc2[nH]c1=O)C(=O)Nc1ccc([N+](=O)[O-])cc1[N+](=O)[O-] | – | > 100 µM | > 100 µM | > 100 µM | – | – | > 100 µM | > 100 µM | > 100 | > 100 µM | – | > 100 µM | > 100 µM | > 100 µM | – | > 100 | > 100 | > 100 µM | – | > 100 µM |
